According to patent publication US7622551B2, “Leukocyte stimulating peptides” (POSCO, priority 2004, dated 2009):
Where no end group is shown, it is not given here.

Key:
[1] = test system: differentiated HL60 cells; assay: Arachidonic acid (AA) release in [3H]AA-labeled dHL60 cells; type: cell-based, human; settings: for AA release stimulating activity (in words) / Effect of cPLA2-specific inhibitors AACOCF3 and MAFP on peptide-induced AA release: dHL60 cells; for AA release stimulating activity (in words): 10 μM; for Effect of cPLA2-specific inhibitors AACOCF3 and MAFP on peptide-induced AA release: inhibitor pretreatment 15 min, 1 μM peptide; for Folds of increase (% of total), arachidonic acid release: differentiated HL60 cells, 10 μM of peptide
Protocol: (§1) U937 (human histiocytic lymphoma cells), HL60 (human promyelocytic leukemia cells), Raw 264.7 (mouse macrophage), Jurkat (human acute T cell leukemia), PC12 (rat adrenal pheochromocytoma cells), 3Y1 (Rat embryonic fibroblasts), 3T3L1 (preadipocytes), and NCI-H292 (human mucoepidermoid pulmonary carcinoma cells) were obtained from the American Type Culture Collection (Rockville, Md.) and maintained as recommended. FPR- or FPRL1 expressing RBL-2H3 cells were cultured as described previously (He et al. J. Immunol. 2000. 165: 4598-4605). Cells were maintained at about 1×10^6 cells/ml under standard incubator conditions (humidified atmosphere, 95% air, 5% CO2, at 37° C.). HL60 cells were induced to differentiate into the granulocyte phenotype by adding dimethylsulfoxide (DMSO) (final concentration 1.25%, v/v) for 4 days to the culture medium, as described previously (Itoh et al. Blood. 1998. 92: 1432-1441).
For the initial screening of the PS-SPCLs, we measured the AA release stimulating activity of each peptide pool. Cultured dHL60 cells (10^7 cells/ml) were pre-labeled with 0.5 μCi/ml of (^3H)-AA in RPMI 1640 medium containing 10% FBS for 90 min at 37° C. in a humidified incubator supplied with 95% air and 5% CO2, as described previously (Bae et al. J. Immunol. 2000. 164: 4089-4096). The labeled cells were then washed twice with serum-free RPMI 1640 and incubated in RPMI 1640 medium containing 0.1% fatty acid-free BSA for 15 min at 37° C. After discarding the medium, the cells were stimulated with various concentrations of peptide for the indicated times. Radioactivity in the medium and of collected cells was determined with a liquid scintillation counter. When investigating the effects of inhibitors, cells were preincubated with the indicated concentrations of each inhibitor or vehicle for 15 min prior to stimulation.

NCI-H292 = assay: [Ca2+]i rise in NCI-H292 cells; type: cell-based, human; settings: NCI-H292, 10 μM
Protocol: as §1
(§2) The level of [Ca^2+]i was determined using Grynkiewicz's method using fura-2/AM (Grynkiewicz et al. J. Biol. Chem. 1985. 260: 3440-3550). Briefly, prepared cells were incubated with 3 μM of fura-2/AM at 37° C. for 50 min in serum-free RPMI 1640 medium under continuous stirring. […] Fluorescence changes were measured at the dual excitation wavelength of 340 nm and 380 nm, and the calculated fluorescence ratio was translated into [Ca^2+]i.

Raw 264.7 = assay: [Ca2+]i rise in Raw 264.7 cells; type: cell-based, mouse; settings: Raw 264.7, 10 μM (FIG. 5)
Protocol: as §1, §2

Monocytes = assay: [Ca2+]i rise in monocytes; type: cell-based, human; settings: 10 μM (FIG. 5)
Protocol: (§3) Peripheral blood leukocyte concentrates were donated by the Ulsan Red Cross Blood Center (Ulsan, Korea). PBMCs were separated on a Histopaque-1077 gradient. After two washings with HBSS without Ca^2+ and Mg^2+, the PBMCs were suspended in 10% FBS containing RPMI and incubated for 60 min at 37° C. to let the monocytes attach to the culture dish. Cells were washed 5 times with warmed RPMI medium to remove lymphocytes, and then the attached monocytes were collected, as described previously (Bae et al. J. Leukoc. Biol. 1999. 65: 241-248). Human neutrophils were isolated according to standard procedures; i.e., dextran sedimentation, hypotonic lysis of erythrocytes, and using a medium lymphocyte separation gradient, as described previously (Seo et al. J. Immunol. 1997. 158: 1895-1901). Isolated human leukocytes were then used promptly.
as §2

U937 cells = assay: [Ca2+]i rise in U937 cells; type: cell-based, human; settings: 10 μM (FIG. 5)
Protocol: as §1, §2

Jurkat cells = assay: [Ca2+]i rise in Jurkat cells; type: cell-based, human; settings: 10 μM (FIG. 5)
Protocol: as §1, §2

HUVEC = assay: [Ca2+]i rise in HUVEC; type: cell-based; settings: 10 μM
Protocol: The level of [Ca^2+]i was determined using Grynkiewicz's method using fura-2/AM (Grynkiewicz et al. J. Biol. Chem. 1985. 260: 3440-3550). Briefly, prepared cells were incubated with 3 μM of fura-2/AM at 37° C. for 50 min in serum-free RPMI 1640 medium under continuous stirring. 2×10^6 cells were aliquoted for each assay in Ca^2+ free Locke's solution (154 mM NaCl, 5.6 mM KCl, 1.2 mM MgCl2, 5 mM HEPES, pH 7.3, 10 mM glucose, and 0.2 mM EGTA). Fluorescence changes were measured at the dual excitation wavelength of 340 nm and 380 nm, and the calculated fluorescence ratio was translated into [Ca^2+]i.

3Y1 = assay: [Ca2+]i rise in 3Y1 cells; type: cell-based, Rat; settings: 3Y1, 10 μM
Protocol: as §1, §2

PC12 = assay: [Ca2+]i rise in PC12 cells; type: cell-based, rat; settings: PC12, 10 μM
Protocol: as §1, §2

neutrophils = assay: [Ca2+]i rise in neutrophils; type: cell-based, human; settings: 10 μM (FIG. 5)
Protocol: as §3, §2

ERK = ERK phosphorylation in dHL60 cells (anti-phospho-ERK immunoblot); type: cell-based, human; settings: for Phosphorylation level of ERK: dHL60 cells (FIG. 9); for Effect of GF109203X (PKC) on peptide-induced ERK phosphorylation / Effect of LY294002 (PI3K) on peptide-induced ERK phosphorylation / Time of maximal ERK activation after stimulation / Effect of PD98059 (MEK) on peptide-induced ERK phosphorylation: dHL60 cells; for Effect of GF109203X (PKC) on peptide-induced ERK phosphorylation: GF109203X (5 μM) 15 minutes; for Effect of GF109203X (PKC) on peptide-induced ERK phosphorylation / Effect of LY294002 (PI3K) on peptide-induced ERK phosphorylation / Effect of PD98059 (MEK) on peptide-induced ERK phosphorylation: 1 μM peptide 5 minutes; for Effect of LY294002 (PI3K) on peptide-induced ERK phosphorylation: LY294002 (50 μM) 15 minutes; for Time of maximal ERK activation after stimulation: data not shown; for Effect of PD98059 (MEK) on peptide-induced ERK phosphorylation: PD98059 (50 μM) 60 minutes
Protocol: Each sample (30 μg of protein) was subjected to 8% SDS-PAGE, and phosphorylated ERK was quantified by immunoblot analysis with anti-phospho-ERK antibody. The results shown are from a single experiment representative of at least three independent experiments.
Extracellular signal regulated protein kinase (ERK) is a well-known intracellular enzyme that mediates diverse cellular responses (Sugden et al. Cell Signal. 1997. 9: 337-351). […] To compare the intracellular signaling involving these 4 peptides, dHL60 cells were pretreated either with LY294002 (50 μM), GF109203X (5 μM), or PD98059 (50 μM) or left untreated as a control. After being incubated for the indicated periods (15 minutes for LY294002 and GF109203X, 60 minutes for PD98059), the cells were stimulated with 1 μM of each peptide for 5 minutes.

Substance	AA release stimulating activity (in words) [1]	Effect of cPLA2-specific inhibitors AACOCF3 and MAFP on peptide-induced AA release [1]	Folds of increase (% of total), arachidonic acid release [1]	[Ca^2+]i rise (NCI-H292)	[Ca^2+]i rise (Raw 264.7)	[Ca^2+]i rise (Monocytes)	[Ca^2+]i rise (U937 cells)	[Ca^2+]i rise (Jurkat cells)	[Ca^2+]i rise (HUVEC)	[Ca^2+]i rise (3Y1)	[Ca^2+]i rise (PC12)	[Ca^2+]i rise (neutrophils)	Phosphorylation level of ERK (ERK)	Effect of GF109203X (PKC) on peptide-induced ERK phosphorylation (ERK)	Effect of LY294002 (PI3K) on peptide-induced ERK phosphorylation (ERK)	Time of maximal ERK activation after stimulation (ERK)	Effect of PD98059 (MEK) on peptide-induced ERK phosphorylation (ERK)
MKYYYM-NH2 [Peptide P24]	most potent	blocked	2.93 ± 0.323 folds	no response	not activated	activated	activated	not activated	no response	no response	no response	resulted in a [Ca^2+]i rise	dramatic increase	not by GF109203X	partially blocked	5 min	–
MKYYKM-NH2 [Peptide P21]	most potent	blocked	2.86 ± 0.426 folds	–	–	–	–	–	–	–	–	–	dramatic increase	–	PI3K and MEK-dependency	5 min	PI3K and MEK-dependency
RKYHVM-NH2 [Peptide P14]	most potent	blocked	2.23 ± 0.403 folds	–	–	–	–	–	–	–	–	–	dramatic increase	blocked	blocked	5 min	blocked
